Where two headings read alike, the source gives them in different places. Peptide text beside a SMILES is read from it.
Experiments:
[1] = compared with EM-2; cited from earlier work
Text: Endomorphins are very short peptides lacking reactive side chain groups, which makes their cyclization difficult. […] In order to obtain cyclic analogs based on the structure of EM-2 but still to preserve the free N-terminal amino group, we introduced into the sequence of EM-2 additional amino acids with functionalized side chains. A pentapeptide analog Tyr-c[D-Lys-Phe-Phe-Asp]NH2 (designated RP-170), ...

MOR [2] = molecular target: T1, MOR (Homo sapiens, UniProt P35372); test: Opioid receptor binding assay, competitive displacement of [3H]DAMGO; design: purchased PerkinElmer; host or cells: CHO cells
Method: (§1) The binding affinities of cyclopeptides RP-171 and RP-172 toward MOR, DOR, and KOR were determined by competitive binding against [^3H]DAMGO, [^3H][D-Ala^2]deltorphin-2, and U-69593, respectively, using membranes of CHO cells transfected with opioid receptors and are summarized in Table 1.
(§2) The opioid receptor binding assays were performed according to the described method, using commercial membranes of Chinese Hamster Ovary (CHO) cells transfected with human opioid receptors. The binding affinities for MOR, DOR, and KOR were determined by radioligand competition analysis using [^3H]DAMGO, [^3H]deltorphin-2, and [^3H]U-69593, respectively, as specific radioligands, respectively. Membrane preparations were incubated at 25 °C for 120 min with appropriate concentrations of a tested peptide in the presence of 0.5 nM radioligand in a total volume of 0.5 ml of 50 mM Tris/HCl (pH 7.4) containing bovine serum albumin (BSA) (1 mg/mL), bacitracin (50 µg/mL), bestatin (30 µM), and captopril (10 µM). Non-specific binding was determined in the presence of 1 µM naloxone. Incubations were terminated by the rapid filtration through the GF/B Whatman (Brentford, UK) glass fiber strips (pre-soaked for 2 h in 0.5% (v/v) polyethylamine) using Millipore Sampling Manifold (Billerica, MA, USA). The filters were washed three times with 4 ml of ice-cold Tris buffer solution. The bound radioactivity was measured in a Packard Tri-Carb 2100 TR liquid scintillation counter (Ramsey, MN, USA) after overnight extraction of the filters in 4 mL of a Perkin Elmer Ultima Gold scintillation fluid (Wellesley, MA, USA). Three independent experiments for each assay were carried out in duplicate. The data were analyzed by a nonlinear least square regression analysis computer program Graph Pad PRISM 6.0 (Graph Pad Software Inc., San Diego, CA, USA). The IC50 values were determined from the logarithmic concentration–displacement curves, and the values of the inhibitory constants (Ki) were calculated according to the equation of Cheng and Prusoff.

DOR [3] = molecular target: T2, DOR (Homo sapiens, UniProt P41143); test: Opioid receptor binding assay, competitive displacement of [3H]deltorphin-2; design: purchased PerkinElmer; host or cells: CHO cells
Method: as §1, §2

KOR [4] = molecular target: T3, KOR (Homo sapiens, UniProt P41145); test: Opioid receptor binding assay, competitive displacement of [3H]U-69593; design: purchased PerkinElmer; host or cells: CHO cells
Method: as §1, §2

MOR [5] = molecular target: T1, MOR; test: Calcium mobilization assay, CHO-MOR cells; assay type: cell-based; design: expressed in transfected cells; host or cells: CHO cells (gift from Prof. Girolamo Calo, University of Padova); conditions: for MOR α ± SEM (intrinsic activity): Emax ratio of tested compound and standard agonist dermorphin, CHO cells co-expressing human MOR and Gαqi5
DOR [6] = molecular target: T2, DOR; test: Calcium mobilization assay, CHO-DOR cells; assay type: cell-based; design: expressed in transfected cells; host or cells: CHO cells (gift from Prof. Girolamo Calo, University of Padova); conditions: n ≥ 3; for DOR pEC50 (CL95%): CHO cells co-expressing human recombinant DOR and GαqG66Di5, Fluo-4 AM fluorescence, FlexStation II; for DOR α ± SEM (intrinsic activity): Emax ratio of tested compound and standard agonist DPDPE, CHO cells co-expressing human DOR and GαqG66Di5
KOR [7] = molecular target: T3, KOR; test: Calcium mobilization assay, CHO-KOR cells; assay type: cell-based; design: expressed in transfected cells; host or cells: CHO cells (gift from Prof. Girolamo Calo, University of Padova); conditions: for KOR α ± SEM (intrinsic activity): Emax ratio of tested compound and standard agonist dynorphin A, CHO cells co-expressing human KOR and Gαqi5
[8] = Reversed-phase HPLC retention (chromatographic behavior as indication of lipophilicity); assay type: physicochemical; conditions: RP-HPLC, Vydac C18 column (5 μm, 4.6 x 250 mm); A 0.1% TFA in water, B 80% acetonitrile in water with 0.1% TFA; linear gradient 0–100% B over 50 min; 1 mL/min; uncalibrated retention time
Text: During the routine LC-MS analysis of analogs RP-171 and RP-172, we noticed a distinct difference in retention times and MS^n patterns for these diastereoisomeric peptides. To confirm our observation, we subjected a mixture of these peptides to LC-MS and MS^n experiments. […] It is interesting that the elution order from the biphenyl column was the same as from the C18 column.
All protected α-amino acids were purchased from Bachem A (Bubendorf, Switzerland). Opioid radioligands, [^3H]DAMGO, [^3H]deltorphin-2, and [^3H]U-69593, and human recombinant opioid receptors were purchased from PerkinElmer (Krakow, Poland). GF/B glass fiber strips were obtained from Whatman (Brentford, UK). Purity of peptides was determined by RP-HPLC and exact mass. Analytical and semi-preparative RP-HPLC was performed using Waters Breeze instrument (Milford, MA, USA) with dual absorbance detector (Waters 2487, MA, USA). […] For LC-MS experiments, Aeris Peptide C18 and Kinetex Biphenyl (Phenomenex, Torrance, CA, USA) were used, in a gradient reversed-phase mode, from 5 to 80% acetonitrile in water (both containing 0.1% HCOOH). ^1H NMR spectra were recorded on a 500 MHz Brucker instrument in DMSO-d6, using residual DMSO as a resonance reference at 2.5 ppm. […]

[9] = membranes of CHO cells transfected with human opioid receptors, 0.5 nM [3H]DAMGO, 25 °C, 120 min, 50 mM Tris/HCl pH 7.4, Cheng-Prusoff, mean ± SEM, n = 3, read-out: Ki MOR
[10] = membranes of CHO cells transfected with human opioid receptors, 0.5 nM [3H]deltorphin-2, 25 °C, 120 min, 50 mM Tris/HCl pH 7.4, Cheng-Prusoff, mean ± SEM, n = 3, read-out: Ki DOR
[11] = CHO cells co-expressing human recombinant MOR and Gαqi5, Fluo-4 AM fluorescence, FlexStation II, n ≥ 3, read-out: MOR pEC50 (CL95%) (converted)

SMILES: NC(=O)[C@@H]1CC(=O)NCCCC[C@@H](NC(=O)[C@@H](N)Cc2ccc(O)cc2)C(=O)N[C@@H](Cc2ccccc2)C(=O)N[C@@H](Cc2ccccc2)C(=O)N1 [RP-170, Tyr-c[D-Lys-Phe-Phe-Asp]NH2] (HELM PEPTIDE1{Y.[dK].F.F.D.[am]}$PEPTIDE1,PEPTIDE1,2:R3-5:R3$$$V2.0)
- stability in the rat brain homogenate [1]: much more stable than EM-2
- Ki (MOR [2]; SEM): 0.55 ± 0.02 nM
- Ki (DOR [3]; SEM): 198 ± 4.5 nM
- Ki (KOR [4]; SEM): 1.52 ± 0.2 nM
- EC50 (MOR [5]): 1.17 nM
- DOR pEC50 (CL95%) (DOR [6]): inactive
- DOR α ± SEM (intrinsic activity) (DOR [6]): inactive
- EC50 (KOR [7]): 2.51 nM

SMILES: NC(=O)[C@@H]1CC(=O)NCCC[C@@H](NC(=O)[C@@H](N)Cc2ccc(O)cc2)CC(=O)N[C@@H](Cc2ccccc2)C(=O)N[C@@H](Cc2ccccc2)C(=O)N1 [RP-171, Tyr-c[(R)-β^3-Lys-Phe-Phe-Asp]NH2]
- HPLC tR [8]: 14.05 min
- Ki (MOR [2]; [9]): 29 ± 4.32 nM
- Ki (DOR [3]; [10]): > 1000 nM
- Ki (KOR [4]; membranes of CHO cells transfected with human opioid receptors, 0.5 nM [3H]U-69593, 25 °C, 120 min, 50 mM Tris/HCl pH 7.4, Cheng-Prusoff, mean ± SEM, n = 3, SEM, read-out: Ki KOR): 420 ± 23 nM
- loss of affinity for KOR as compared with the parent RP-170 (KOR [4]; ratio of Ki values versus RP-170): 276 fold
- EC50 (MOR [5]; [11]): 135 nM
- MOR α ± SEM (intrinsic activity) (MOR [5]; n ≥ 3): 0.82 ± 0.02
- DOR pEC50 (CL95%) (DOR [6]): inactive
- DOR α ± SEM (intrinsic activity) (DOR [6]): inactive
- EC50 (KOR [7]; CHO cells co-expressing human recombinant KOR and Gαqi5, Fluo-4 AM fluorescence, FlexStation II, n ≥ 3, read-out: KOR pEC50 (CL95%) (converted)): 1020 nM
- KOR α ± SEM (intrinsic activity) (KOR [7]; n ≥ 3): 0.82
- KOR α ± SEM (intrinsic activity) (KOR [7]; n ≥ 3, SEM): 0.82 ± 0.05

SMILES: NC(=O)[C@@H]1CC(=O)NCCC[C@H](NC(=O)[C@@H](N)Cc2ccc(O)cc2)CC(=O)N[C@@H](Cc2ccccc2)C(=O)N[C@@H](Cc2ccccc2)C(=O)N1 [RP-172, Tyr-c[(S)-β^3-Lys-Phe-Phe-Asp]NH2]
- HPLC tR [8]: 14.36 min
- Ki (MOR [2]; [9]): 950 ± 45 nM
- Ki (DOR [3]; [10]): > 1000 nM
- Ki (KOR [4]; membranes of CHO cells transfected with human opioid receptors, 0.5 nM [3H]U-69593, 25 °C, 120 min, 50 mM Tris/HCl pH 7.4, Cheng-Prusoff, mean ± SEM, n = 3, read-out: Ki KOR): > 1000 nM
- EC50 (MOR [5]; [11]): 3550 nM
- MOR α ± SEM (intrinsic activity) (MOR [5]; n ≥ 3): 0.45 ± 0.02
- DOR pEC50 (CL95%) (DOR [6]): inactive
- DOR α ± SEM (intrinsic activity) (DOR [6]): inactive
- KOR pEC50 (CL95%) (KOR [7]; CHO cells co-expressing human recombinant KOR and Gαqi5, Fluo-4 AM fluorescence, FlexStation II, n ≥ 3): inactive
- KOR α ± SEM (intrinsic activity) (KOR [7]; n ≥ 3): inactive
